{"source": "patent US5599953A", "about": "“C-glycoside analogues of N-(4-hydroxyphenyl)retinamide-O-glucuronide” (The Ohio State Research Foundation, priority 1995, dated 1997)", "molecules": {"B1": {"name": "β-glucuronidase (Homo sapiens) (protein)", "chain": "LQGGMLYPQESPSRECKELDGLWSFRADFSDNRRRGFEEQWYRRPLWESGPTVDMPVPSSFNDISQDWRLRHFVGWVWYEREVILPERWTQDLRTRVVLRIGSAHSYAIVWVNGVDTLEHEGGYLPFEADISNLVQVGPLPSRLRITIAINNTLTPTTLPPGTIQYLTDTSKYPKGYFVQNTYFDFFNYAGLQRSVLLYTTPTTYIDDITVTTSVEQDSGLVNYQISVKGSNLFKLEVRLLDAENKVVANGTGTQGQLKVPGVSLWWPYLMHERPAYLYSLEVQLTAQTSLGPVSDFYTLPVGIRTVAVTKSQFLINGKPFYFHGVNKHEDADIRGKGFDWPLLVKDFNLLRWLGANAFRTSHYPYAEEVMQMCDRYGIVVIDECPGVGLALPQFFNNVSLHHHMQVMEEVVRRDKNHPAVVMWSVANEPASHLESAGYYLKMVIAHTKSLDPSRPVTFVSNSNYAADKGAPYVDVICLNSYYSWYHDYGHLELIQLQLATQFENWYKKYQKPIIQSEYGAETIAGFHQDPPLMFTEEYQKSLLEQYHLGLDQKRRKYVVGELIWNFADFMTEQSPTRVLGNKKGIFTRQRQPKSAAFLLRERYWKIANETRYPHSVAKSQCLENSLFT"}}, "key": {"β-glucuronidase": {"molecular_target": "T1, β-glucuronidase (Homo sapiens, UniProt P08236)", "T1 sequence (P08236 23-651)": "B1 chain", "test": "Stability toward β-glucuronidase mediated hydrolysis", "type": "in vitro ADME", "details": "within twenty minutes", "protocol": "Similarly 1-(D-glucopyranosyluronosyl) retinamide and RAG were evaluated for their stability toward β-glucuronidase medicated hydrolysis under the same conditions as described above."}, "[1]": {"molecular_target": "T2, human retinoic acid receptor γ (Homo sapiens, UniProt P13631)", "T2 construct": "made in house", "T2 sequence (P13631 1-454)": "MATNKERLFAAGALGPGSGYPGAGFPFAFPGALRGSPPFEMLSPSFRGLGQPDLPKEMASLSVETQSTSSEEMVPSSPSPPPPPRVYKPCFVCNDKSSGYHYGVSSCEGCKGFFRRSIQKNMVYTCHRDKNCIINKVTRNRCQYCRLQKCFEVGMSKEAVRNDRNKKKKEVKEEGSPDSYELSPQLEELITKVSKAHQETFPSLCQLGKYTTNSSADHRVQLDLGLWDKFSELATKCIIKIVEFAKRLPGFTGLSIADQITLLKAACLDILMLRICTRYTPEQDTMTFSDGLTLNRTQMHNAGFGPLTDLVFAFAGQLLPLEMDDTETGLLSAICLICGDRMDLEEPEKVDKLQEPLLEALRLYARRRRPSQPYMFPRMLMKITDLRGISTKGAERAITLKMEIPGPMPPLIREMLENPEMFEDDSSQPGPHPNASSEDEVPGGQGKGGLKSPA", "test": "Competition binding / retinoic acid binding, human retinoic acid receptor γ/BCV (FIG. 1)", "details": "1.3 nM [3H]-retinoic acid"}, "[2]": {"system": "DMBA-Induced Rat Mammary Tumors", "test": "Effect on progression of DMBA-induced rat mammary tumors", "type": "in vivo", "details": "1 mmol/Kg in diet; for tumor latency: 15 mg DMBA oral; for tumor incidents / tumor number/rat: 110 days post intubation", "source_text": "The control rats received DMBA intubation only and AIN-76A rat chow."}, "[3]": {"test": "Acid stability, 0.1N HCl at 37° C. for two hours", "type": "physicochemical", "protocol": "Similarly, 1-(D-glucopyranosyluronosyl) retinamide and RAG were treated with 0.1N HCl at 37° C. for two hours."}, "[4]": {"system": "cultured human breast cancer cells", "details": "Bhatnagar et al.; cited from earlier work"}, "mRARβ": {"molecular_target": "T3, mRARβ (Mus musculus, UniProt P22605)", "T3 construct": "made in house; host or cells: Spodoptera frugiperda insect cells, baculovirus (whole cell extract)", "T3 sequence (P22605 1-448 isoform P22605-3)": "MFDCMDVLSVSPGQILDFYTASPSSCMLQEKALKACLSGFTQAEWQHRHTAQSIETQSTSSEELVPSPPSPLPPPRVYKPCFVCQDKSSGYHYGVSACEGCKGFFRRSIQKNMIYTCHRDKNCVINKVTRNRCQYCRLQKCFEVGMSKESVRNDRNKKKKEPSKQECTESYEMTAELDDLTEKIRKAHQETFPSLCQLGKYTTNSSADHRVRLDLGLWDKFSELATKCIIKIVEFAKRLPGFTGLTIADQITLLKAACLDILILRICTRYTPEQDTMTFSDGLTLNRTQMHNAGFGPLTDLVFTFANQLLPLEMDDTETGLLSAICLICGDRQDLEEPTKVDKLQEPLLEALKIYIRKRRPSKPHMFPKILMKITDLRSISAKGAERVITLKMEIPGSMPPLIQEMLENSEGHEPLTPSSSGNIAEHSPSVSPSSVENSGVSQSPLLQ", "test": "Drug competition with (3H)retinoic acid binding, mRARβ", "details": "read-out: percent reduction of binding of the (3H)retinoic acid, mRARβ; 1 μM drug; 5 nM [3H]RA"}, "[5]": {"system": "carcinogen-induced rat mammary tumors", "details": "cited from earlier work"}, "cancer": {"system": "cancer", "details": "literature; cited from earlier work"}, "mRARγ": {"molecular_target": "T4, mRARγ (Mus musculus, UniProt P18911)", "T4 construct": "made in house; host or cells: Spodoptera frugiperda insect cells, baculovirus (whole cell extract)", "T4 sequence (P18911 1-458)": "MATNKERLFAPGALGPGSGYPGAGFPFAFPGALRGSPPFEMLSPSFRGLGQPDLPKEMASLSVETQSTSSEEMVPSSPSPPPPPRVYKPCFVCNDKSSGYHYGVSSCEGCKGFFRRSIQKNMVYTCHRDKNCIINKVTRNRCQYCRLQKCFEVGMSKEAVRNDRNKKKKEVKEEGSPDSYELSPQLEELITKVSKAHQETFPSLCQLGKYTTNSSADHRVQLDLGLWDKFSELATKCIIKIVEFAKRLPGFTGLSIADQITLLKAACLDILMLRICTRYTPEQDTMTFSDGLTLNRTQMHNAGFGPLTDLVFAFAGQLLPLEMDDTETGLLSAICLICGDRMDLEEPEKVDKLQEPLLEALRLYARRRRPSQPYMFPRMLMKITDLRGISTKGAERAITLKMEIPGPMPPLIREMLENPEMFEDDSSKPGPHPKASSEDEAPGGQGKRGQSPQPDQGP", "test": "Drug competition with (3H)retinoic acid binding, mRARγ", "details": "read-out: percent reduction of binding of the (3H)retinoic acid, mRARγ; 1 μM drug; 5 nM [3H]RA"}, "MCF-7 cells": {"system": "MCF-7 cells", "test": "Growth inhibition of MCF-7 human mammary tumor cells", "type": "cell-based", "details": "Homo sapiens, MCF7, 168 h, 7 days, read-out: ED50 for growth inhibition of MCF-7 cells", "protocol": "The antiproliferative activity of the drugs in MCF-7 human mammary tumor cell culture models were determined.\nThe MCF-7 cells were obtained originally from the Michigan Cancer Foundation. The cells were routinely grown as monolayers in T-25 plastic tissue culture flasks from Falcon, in Oxnard, Calif. containing 5.0 mL of B-10 medium consisting of Minimum Essential Medium (MEM, Earle's Base) supplemented with 1.0 mM MEM non-essential amino acid, 2.0 mM 1-glutamine,10% fetal bovine serum (FBS), and antibiotics. Culture conditions included a humidified atmosphere of 5% CO2 at 37° C. One-half of the medium was replenished twice a week. Cells were harvested by trypsinization upon confluency. All variables were evaluated in triplicate.\nFor the growth inhibition assay the MCF-7 cells were plated in 24-well plates at a density of 1.5×10^4 cells/cm^2. […] Control cultures were treated with an equivalent volume of absolute ethanol. On day 7 the cells were harvested by trypsinization and viability was assessed by trypan blue exclusion according to Ueda, H. et al. Cancer 1980, 46, 2203-2209. Total cell counts were obtained using a hemocytometer as well as a the Coulter Counter."}, "mRARα": {"molecular_target": "T5, mRARα (Mus musculus, UniProt P11416)", "T5 construct": "made in house; host or cells: Spodoptera frugiperda insect cells, baculovirus (whole cell extract)", "T5 sequence (P11416 1-462)": "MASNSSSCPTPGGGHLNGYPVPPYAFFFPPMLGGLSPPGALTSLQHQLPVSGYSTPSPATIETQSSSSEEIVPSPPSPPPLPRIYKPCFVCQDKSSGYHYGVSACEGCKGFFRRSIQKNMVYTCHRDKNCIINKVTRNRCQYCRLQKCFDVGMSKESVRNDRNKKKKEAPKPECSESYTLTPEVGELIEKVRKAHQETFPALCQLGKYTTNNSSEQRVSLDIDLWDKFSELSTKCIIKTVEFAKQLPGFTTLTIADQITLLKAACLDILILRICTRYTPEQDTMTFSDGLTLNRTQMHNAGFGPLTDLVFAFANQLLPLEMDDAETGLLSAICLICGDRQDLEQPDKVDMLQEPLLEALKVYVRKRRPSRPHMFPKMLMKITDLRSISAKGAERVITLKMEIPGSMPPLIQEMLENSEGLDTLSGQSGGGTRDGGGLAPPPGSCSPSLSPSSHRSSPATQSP", "test": "Drug competition with (3H)retinoic acid binding, mRARα", "details": "read-out: percent reduction of binding of the (3H)retinoic acid, mRARα"}, "[6]": {"system": "hamster tracheal in vitamin A deficient epithelial tissue", "details": "Newton et al.; cited from earlier work"}, "[7]": {"substrate": "CC1=C(/C=C/C(C)=C/C=C/C(C)=C/C(=O)Nc2ccc(O[C@@H]3O[C@H](C(=O)O)[C@@H](O)[C@H](O)[C@H]3O)cc2)C(C)(C)CCC1", "test": "Inhibition of β-glucuronidase mediated hydrolysis of 4-HPR-O-glucuronide", "type": "biochemical", "details": "other: 4-HPR-O-glucuronide as substrate", "source_text": "Chem. Soc., (1954), 76, 4872-4877."}}, "note": "Entries after “also recorded” stand apart in the source; their conditions may differ. Like-named read-outs stand apart in the source and are kept apart here."}
{"molecule": "CC1=C(/C=C/C(C)=C/C=C/C(C)=C/C(=O)NC2O[C@H](C(=O)O)[C@@H](O)[C@H](O)[C@H]2O)C(C)(C)CCC1", "note": "(stereo partly drawn) [1-(D-glucopyranosyluronosyl) retinamide]", "values": [{"measurement": "hydrolysis by β-glucuronidase within twenty minutes", "setting": "β-glucuronidase", "value": "remained intact"}, {"measurement": "Ki", "setting": "[1]", "value": 280, "unit": "nM"}, {"measurement": "effect on DMBA-induced mammary tumor development, in words", "setting": "[2]", "value": "significantly prolonged the latency period of mammary cancer; also recorded: tumor induction was markedly delayed and reduced; also recorded: caused the largest reduction in multiple mammary tumors; also recorded: greater mammary tumor chemopreventive effect than does retinoic acid; also recorded: inhibit DMBA induced mammary tumor development"}, {"measurement": "tumor latency", "setting": "[2]", "value": 64, "unit": "days"}, {"measurement": "tumor incidents", "setting": "[2]", "value": 50, "unit": "%"}, {"measurement": "tumor number/rat", "setting": "[2]", "value": 0.83, "unit": "tumors per rat"}, {"measurement": "acid stability", "setting": "[3]", "value": "remained intact"}]}
{"molecule": "CC1=C(/C=C/C(C)=C/C=C/C(C)=C/C(=O)Nc2ccc(O)cc2)C(C)(C)CCC1", "note": "[Example 4-HPR, N-(4-hydroxyphenyl) retinamide, reference compound]", "values": [{"measurement": "cytotoxicity", "setting": "[4]", "value": "significant cytotoxicity"}, {"measurement": "inhibition at 1 µM", "setting": "mRARβ", "value": 5, "unit": "%"}, {"measurement": "breast cancer chemopreventive activity combined with calcium glucarate", "setting": "[5]", "value": "synergistically exerts an increased breast cancer chemopreventive activity"}, {"measurement": "cancer preventive activity", "setting": "cancer", "value": "displays chemopreventive activity in breast cancer"}, {"measurement": "inhibition at 1 µM", "setting": "mRARγ", "value": 7, "unit": "%"}, {"measurement": "IC50", "setting": "MCF-7 cells; Assay 1", "value": 2800, "unit": "nM"}, {"measurement": "IC50", "setting": "MCF-7 cells; Assay 2", "value": 1500, "unit": "nM"}, {"measurement": "IC50", "setting": "MCF-7 cells; Assay 3", "value": 33000, "unit": "nM"}, {"measurement": "inhibition at 1 µM", "setting": "mRARα; 1 μM drug, 5 nM [3H]RA", "value": 18, "unit": "%"}]}
{"molecule": "CC1=C(/C=C/C(C)=C/C=C/C(C)=C/C(=O)O)C(C)(C)CCC1", "note": "[retinoic acid, reference compound]", "values": [{"measurement": "reversal of metaplastic condition", "setting": "[6]", "value": "can reverse the metaplastic condition of hamster tracheal in vitamin A deficient epithelial tissue"}, {"measurement": "cancer preventive activity", "setting": "cancer", "value": "display cancer preventive activity"}, {"measurement": "tumor latency", "setting": "[2]", "value": 49, "unit": "days"}, {"measurement": "tumor incidents", "setting": "[2]", "value": 83, "unit": "%"}, {"measurement": "tumor number/rat", "setting": "[2]", "value": 1.17, "unit": "tumors per rat"}, {"measurement": "inhibition at 1 µM", "setting": "mRARγ", "value": 100, "unit": "%"}, {"measurement": "inhibition at 1 µM", "setting": "mRARα", "value": 100, "unit": "%"}]}
{"molecule": "B1", "values": [{"measurement": "Km", "setting": "[7]", "value": 184.5, "unit": "µM"}]}
